According to ChEMBL document CHEMBL4421733, “Inhibitors of eya2” (2012):
Calls of active or inactive are those of the source. The rule behind the calls is not given here.

How the values were obtained:
[1] = target: T1, Protein phosphatase EYA2 (Homo sapiens) (UniProt O00167); assay: Inhibition of GST-fused human Eya2 ED (253 to 538 residues) expressed in Escherichia coli at […] pre-incubated for 10 mins followed by OMFP substrate addition and further incubated for 30 mins by fluorescence based assay
T1 sequence (whole entry): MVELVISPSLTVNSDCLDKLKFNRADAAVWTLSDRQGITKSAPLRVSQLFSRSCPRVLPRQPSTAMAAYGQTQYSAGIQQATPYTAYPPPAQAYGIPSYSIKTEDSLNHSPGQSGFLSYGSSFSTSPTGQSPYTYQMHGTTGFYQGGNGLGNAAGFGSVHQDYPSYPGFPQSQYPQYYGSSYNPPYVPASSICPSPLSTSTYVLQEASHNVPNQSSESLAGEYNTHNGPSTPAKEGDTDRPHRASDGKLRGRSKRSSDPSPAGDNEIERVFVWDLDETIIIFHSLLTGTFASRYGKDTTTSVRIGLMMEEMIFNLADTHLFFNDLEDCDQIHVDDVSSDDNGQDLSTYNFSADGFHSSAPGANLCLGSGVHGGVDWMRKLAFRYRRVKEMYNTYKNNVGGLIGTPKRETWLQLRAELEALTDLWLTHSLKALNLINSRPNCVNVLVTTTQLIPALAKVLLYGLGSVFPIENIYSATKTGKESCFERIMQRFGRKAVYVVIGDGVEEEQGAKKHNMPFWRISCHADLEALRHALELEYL

[2] = Binding affinity to Na+ ion in acetonitrile at 12.5 uM assessed as induction of shift in the maximum absorbance wavelength by UV spectroscopy
[3] = Binding affinity to Na+ ion assessed as induction of chemical shift at 5 mM by 1H-NMR spectroscopy
[4] = Binding affinity to Mg2+ ion at 25 uM in aqueous buffers by UV spectroscopy
[5] = Binding affinity to Mg2+ ion in acetonitrile assessed as induction of shift in the maximum absorbance wavelength by UV spectroscopy
[6] = Binding affinity to Mg2+ ion assessed as induction of chemical shift at 5 mM in presence of in presence of 25 mM magnesium 1H-NMR spectroscopy
[7] = Binding affinity to Mg2+ ion in acetonitrile assessed as induction of shift in the maximum absorbance wavelength at 25 uM by UV spectroscopy

In the case of `c1cnc2c(c1)ccc1cccnc12`, the inhibition [1] is reported as “inactive”.

With `O=C(N/N=C/c1ccc(Sc2ccccn2)o1)c1cccc(F)c1` the Activity [2] was “inactive”, the Activity [3] was “inactive” and the Activity [4] was “inactive”. For the same compound, the Activity [5] was “Dose-dependent effect” and the Activity [6] was -0.6 ppm.

In the case of `C=C1[C@@H](O)[C@@H]2O[C@@]3(CC[C@H](/C=C/[C@@H](C)[C@@H]4CC(C)=C[C@@]5(O[C@H](C[C@@](C)(O)C(=O)O)CC[C@H]5O)O4)O3)CC[C@H]2O[C@@H]1[C@@H](O)C[C@H](C)[C@H]1O[C@@]2(CCCCO2)CC[C@H]1C`, the inhibition [1] is reported as “inactive”.

In the case of `Cc1ccccc1C(=O)N/N=C/c1ccc(Sc2ccccn2)o1`, the Activity [7] is reported as “Active”.

In the case of `N[C@@H](Cc1ccccc1)C(=O)O`, the inhibition [1] is reported as “inactive”.
